{"source": "patent US20220145303A1", "about": "“FRAGILE X MENTAL RETARDATION PROTEIN INTERFERING OLIGONUCLEOTIDES AND METHODS OF USING SAME” (Nogra Pharma Limited, priority 2019, published 2022)", "key": {"HCT-116 cells [1]": {"tested_on": "HCT-116 cells", "experiment": "Cell death by AnnexinV/PI flow cytometry in HCT-116 cells", "format": "cell-based, human", "details": "48 hours, AS 0.5 nM and 100 nM, FIG. 3H", "experimental": "(§1) Cells were transfected with either FMRP antisense oligonucleotide (AS)(final concentration 0.5 nM and 100 nM) or FMRP sense oligonucleotide (S)(final concentration 100 nM). After 24 hours (FIGS. 3E, 3F, 3J and 3K) or 48 hours (FIG. 3H), cells were collected, washed two times in Annexin V (AV) buffer, stained with FITC-AnnexinV (final dilution 1:100; Immunotools, Friesoythe, Germany) according to the manufacturer's instructions, and incubated with […] of propidium iodide (PI) for 30 min at 4° C. Cells were also transfected with either FMRP sense oligonucleotide or FMRP AS oligonucleotide (final concentration 100 nM) for 36 hours and analyzed for activated caspase 3 and caspase 8. As positive and negative controls, cells were treated, respectively, with staurosporin (final concentration 1 μM, Sigma-Aldrich Milan, Italy) or Q-VD-OPh (a pan-caspase inhibitor; final concentration 1 μM) (R&D Systems, Inc, Minneapolis, Minn.). Additionally, 36 hours (FIGS. 4F and 4G) or 48 hours post-transfection (FIGS. 4D and 4E), cells were pulsed with […] bromodeoxyuridine for 60 minutes, fixed in 70% cold ethanol, and stored at −20° C. for at least 3 hours. […] Fluorescence was measured using Gallios Flow Cytometer (Beckman Coulter, Life Sciences, Pasadena, Calif., USA) and analyzed using Kaluza software (Beckman Coulter). […]"}, "MLKL": {"tested_on": "MLKL", "experiment": "Western blot of phospho-MLKL after FMRP antisense treatment", "format": "cell-based", "details": "human CRC cell lines, 24 hours, FIGS. 6A, 6D", "experimental": "(§2) To confirm the association of FMRP with components of the necroptosis pathway, cells were left untreated or transfected with either FMRP antisense oligonucleotide (final concentration 0.5 nM and 100 nM) or FMRP sense oligonucleotide (final concentration 100 nM); incubated with a pMLKL inhibitor (necrosulfonamide, NSA; final concentration 1 μM)(Calbiochem); or a pRIPK1 inhibitor (necrostatinl, NEC1; final concentration 10 μM)(Cayman Chemical, Ann Arbor, Mich. USA). After 24 hours cells were collected and analyzed by Western blot, or stained with FITC-Annexin V and PI for flow cytometry analysis, as previously described in Examples 1-3."}, "MCC": {"tested_on": "MCC", "experiment": "Western blot of MCC in HCT-116 cells", "format": "cell-based, human", "details": "HCT-116, AS 0.5 nM, 48 hours, vs untreated or sense, FIGS. 9A, 9B", "experimental": "To investigate whether FMRP regulates MCC, a protein known to interact with the E-cadherin/β-catenin complex, HCT-116 cells were left untreated (U) or transfected with sense FMRP oligonucleotide (S) (final concentration 0.5 nM) or antisense FMRP oligonucleotide (AS) (final concentration 0.5 nM) for 48 hours."}, "HCT-116 cells [2]": {"tested_on": "HCT-116 cells", "experiment": "Invasion across Matrigel-coated Transwell inserts", "format": "cell-based, human", "details": "HCT-116, AS 0.5 nM, 48 hours, vs untreated or sense, FIGS. 8C, 8D", "experimental": "(§3) To investigate the role of FMRP in tumor cell migration and invasion, HCT-116 cells were seeded in each side of an Ibidi® culture insert and grown to confluence then left untreated (U) or transfected with sense FMRP oligonucleotide (S) (final concentration 0.5 nM) or antisense FMRP oligonucleotide (AS) (final concentration 0.5 nM). Additionally, HCT-116 cells were seeded in Transwell® inserts precoated with Matrigel®, and either left untreated (U) or transfected with sense oligonucleotide (S) (final concentration 100 nM) or antisense FMRP oligonucleotide (AS) (final concentration 0.5 nM) for 48 hours."}, "HCT-116 cells [3]": {"tested_on": "HCT-116 cells", "experiment": "Cell migration (pseudo-wound closure) with Ibidi culture insert", "format": "cell-based, human", "details": "HCT-116, AS 0.5 nM, T24 and T48, vs untreated or sense, FIGS. 8A, 8B", "experimental": "as §3\nTo determine whether MCC regulation of the E-cadherin/β-catenin complex is also required for the observed inhibition of colorectal cell line migration and invasion (e.g., FIGS. 8A and 8B), HCT-116 cells were seeded in each side of an Ibidi® culture insert and grown to confluence then left untreated (U) or transfected with sense oligonucleotide (S) (final concentration 0.5 nM) or antisense oligonucleotide (AS) (final concentration 0.5 nM) and/or siRNA Ctrl or siRNA MCC."}, "RIPK1": {"tested_on": "RIPK1", "experiment": "Western blot of RIPK1 and phospho-RIPK1 after FMRP antisense treatment", "format": "cell-based", "details": "human CRC cell lines, 24 hours", "experimental": "as §2"}, "HCEC-1ct cells": {"tested_on": "HCEC-1ct cells", "experiment": "Cell death by AnnexinV/PI flow cytometry in HCEC-1ct cells", "format": "cell-based, human", "details": "24 hours, AS 0.5 nM and 100 nM, FIGS. 3J, 3K", "experimental": "as §1"}, "DLD-1 cell lines": {"tested_on": "DLD-1 cell lines", "experiment": "Cell cycle distribution by bromodeoxyuridine/PI flow cytometry", "format": "cell-based, human", "details": "DLD-1 48 hours (FIGS. 4D, 4E); HCT-116 36 hours (FIGS. 4F, 4G); before induction of cell death", "experimental": "as §1"}, "caspase 3": {"tested_on": "caspase 3", "experiment": "Activated caspase 3 by flow cytometry in CRC cells", "format": "cell-based, human", "details": "oligonucleotide 100 nM 36 hours, staurosporin 1 μM, FIGS. 4A, 4B", "experimental": "Immunotools, Friesoythe, Germany) according to the manufacturer's instructions, and incubated with […] of propidium iodide (PI) for 30 min at 4° C. Cells were also transfected with either FMRP sense oligonucleotide or FMRP AS oligonucleotide (final concentration 100 nM) for 36 hours and analyzed for activated caspase 3 and caspase 8. […] Additionally, 36 hours (FIGS. 4F and 4G) or 48 hours post-transfection (FIGS. 4D and 4E), cells were pulsed with […] bromodeoxyuridine for 60 minutes, fixed in 70% cold ethanol, and stored at −20° C. for at least 3 hours. […] Fluorescence was measured using Gallios Flow Cytometer (Beckman Coulter, Life Sciences, Pasadena, Calif., USA) and analyzed using Kaluza software (Beckman Coulter). Viable cells were considered as AV^−/PI^− cells."}, "RIPK3": {"tested_on": "RIPK3", "experiment": "Western blot of phospho-RIPK3 after FMRP antisense treatment", "format": "cell-based", "details": "human CRC cell lines, 24 hours, FIGS. 6A, 6C", "experimental": "as §2"}}, "data": [{"substance": "5′-TCCACCACCAGCTCCTCCAT-3′ (all phosphorothioate, sugars by position and methylation of C not given here) [FMRP antisense oligonucleotide, Phosphorothioate single-stranded antisense oligonucleotides complementary to human FMRP]", "values": [{"measurement": "number of AnnexinV+ or AnnexinV+ PI+ cells", "setting": "HCT-116 cells [1]", "result": "neither HCT-116 cells nor HCRC-1ct cells treated with FMRP antisense oligonucleotide exhibited an increased number"}, {"measurement": "phosphorylation of MLKL", "setting": "MLKL", "result": "increased phosphorylation"}, {"measurement": "MCC protein expression", "setting": "MCC", "result": "significantly increased expression of MCC"}, {"measurement": "number of cells migrating across Matrigel-coated Transwell insert", "setting": "HCT-116 cells [2]", "result": "significantly reduced migration"}, {"measurement": "percentage of cell-covered area (pseudo-wound)", "setting": "HCT-116 cells [3]", "result": "significantly reduced the percentage of cells covering a pseudo-“wound”"}, {"measurement": "total protein expression levels of RIPK1", "setting": "RIPK1; AS 0.5 nM and 100 nM, FIG. 6A", "result": "increased the total protein expression levels of RIPK1"}, {"measurement": "phosphorylation of RIPK1", "setting": "RIPK1; FIGS. 6A, 6B", "result": "increased phosphorylation"}, {"measurement": "number of AnnexinV+ or AnnexinV+ PI+ cells", "setting": "HCEC-1ct cells", "result": "neither HCT-116 cells nor HCRC-1ct cells treated with FMRP antisense oligonucleotide exhibited an increased number"}, {"measurement": "relative percentage of cells in G2/M, S, or G0/G1 cell cycle phases", "setting": "DLD-1 cell lines", "result": "did not affect"}, {"measurement": "percentage of activated caspase 3-positive cells", "setting": "caspase 3", "result": "did not alter"}, {"measurement": "phosphorylation of RIPK3", "setting": "RIPK3", "result": "increased phosphorylation"}]}]}
